The test system of the test is LTC4-induced contraction of guinea pig ileum. The test can be described thus: Test for Inhibition of LTC4-Induced Guinea Pig Ilial Contractions. The following applies: Cavia porcellus, LTC4 6 nanomolar, isolated guinea pig ilial strips, four replicate tissues, read-out: Percent Inhibition of Contraction at the given Concentration of Test Compound; for inhibition at 1 µM: 1 μMolar; for inhibition at 5 µM: 5 μMolar; for inhibition at 10 µM: 10 μMolar; for inhibition at 50 µM: 50 μMolar. As for the experimental part: Test for Inhibition of LTC4 -Induced Guinea Pig Ilial Contractions The evaluation of potential anti-allergic compounds for antagonism of the in vitro effects of LTC4 is conducted according to the following procedure. Guinea pig ilial strips are obtained from recently killed animals and hung in isolated tissue baths comprising a balanced solution of salts such as Krebs' solution. After allowing for one hour equilibration of the tissue in the bath, the gram tension (G.T.) on one tissue is arbitrarily set at one. LTC4 (6 nanomolar concentration) is then added to the tissue bath. This induces a long, sustained contraction of the tissue that is measured on the strip chart recorder (the G.T. increases to about 2). After the LTC4 -induced contraction has plateaued and remains stable, increasing amounts of the test compound are added to the bath. If the compound is effective, a decrease in the G.T. (ΔG.T.) from the LTC4 -induced value is seen (e.g., from 2 to 1.5). The percent inhibition at each concentration is calculated according to the formula: [formula] Four replicate tissues are run.

Where a name gives a salt, the structure may show the parent alone.

Consider `CCCNCC(O)COc1ccc2c(c1)O/C(=C\c1ccccc1)C2=O` (stereo not drawn) [Example 1, 6-[2-Hydroxy-3-(propylamino)propoxy]aurone Hydrochloride], for which the inhibition at 1 µM was found to be 16%, the inhibition at 5 µM stood at 44%, the inhibition at 10 µM came out at 66% and the inhibition at 50 µM turned out to be 135%.

As to `CC(C)NCC(O)COc1ccc2c(c1)O/C(=C\c1ccccc1)C2=O` (stereo not drawn) [Example 2, 6-[2-Hydroxy-3-(isopropylamino)propoxy]aurone Hydrochloride], the inhibition at 1 µM stood at 23%, the inhibition at 5 µM came out at 48%, the inhibition at 10 µM amounted to 62% and the inhibition at 50 µM was determined as 154%.

Turning to `O=C1/C(=C/c2ccccc2)Oc2cc(OCC(O)CNC3CC3)ccc21` (stereo not drawn) [Example 3, 6-[3-(Cyclopropylamino)-2-hydroxypropoxy]aurone Hydrochloride], the inhibition at 1 µM was found to be 25%, the inhibition at 5 µM was found to be 48%, the inhibition at 10 µM was found to be 65% and the inhibition at 50 µM was determined as 144%.

These data come from patent US4806660A, “Aurone oxypropanolamines” (Pennwalt Corporation, priority 1988, dated 1989).
